For one test, the target named is T1, RIPK2 enzyme (Homo sapiens, UniProt O43353).
T1 construct: purchased Carna 09-128
The experiment in a line: RIPK2 inhibition (ADP-Glo Kinase Assay). The following applies: RIPK2 5 nM, ATP 150 μM, MBP substrate, read-out: RIPK2 IC50. Format: biochemical. In short, it runs like this: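 Human RIPK2 (5 nM) preincubated with compound 30 min at room temperature in 50 mM HEPES pH 7.5, 10 mM MgCl2, 2 mM DTT, 1 mM EGTA, 0.01% Brij-35, 0.05% BSA; native swine MBP as substrate. ADP formed quantified by ADP-Glo luminescence; percent inhibition relative to DMSO and no-enzyme controls.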

For a further test, the system named is human NOD2 signaling. The experiment in a line: Inhibition of human NOD2 signaling in HEK-Blue-hNOD2 cells (L18-MDP stimulated, SEAP reporter). It counts as cell-based. The following applies: Homo sapiens, HEK-Blue hNOD2, HEK-Blue-hNOD2 cells, NOD2 ligand stimulation, SEAP reporter; read-out: hNOD2 IC50. The procedure: Materials: Human NOD32-expressing 1TEK293 cells, HEK-Blue™-hNOD2 cells, were developed by Invivogen (catalogue number: hkb-hnod2) using co-transfection of the human NOD2 gene and an optimized secreted embryonic alkaline phosphatase (SEAP) reporter gene into HTEK293 cells. The cell maintenance medium consisted of DMEM (Giboc, 21063-029), heat inactivated FBS, penicillin (100 U/mL), streptomycin (100 μg/mL), Normocin (100 μg/mL), Blasticidin (30 μg/mL), and Zeocin (100 μg/mL). HEK-Blue™-hNOD2 cells were transferred to assay medium consisting of DMEM (Giboc, 21063-029), heat inactivated FBS, penicillin (100 U/mL) and streptomycin (100 μg/mL) prior to stimulation. Stimulation with a NOD2 ligand, L18-MDP (Invivogen, catalogue number: tlrl-lmdp) activated NF-κB and AP-1 which induced the production of SEAP. Levels of SEAP were determined with HEK-Blue™ Detection (referred to as QUANTI-Blue solution), a cell culture medium that allows for real-time detection of SEAP. QUANTI-Blue solution was prepared by adding 1 mL of QB reagent and 1 mL of QB buffer to 98 mL of sterile H2O. Test compounds were prepared into a 10 mM DMSO solution and were serially diluted into 10 points using a 3-fold dilution in a 384 well plate using a TECAN EVO200.
Method: In a 384 well plate, 40 nL of test compound was dispensed using Echo550. HEK-Blue™-hNOD2 cells (Invivogen) were prepared into a cell suspension and 40 μL of the cell suspension (12500 cells per well) was dispensed into the 384 well plate. To activate NOD2 signaling, 40 nL of L18-MDP (final concentration of 0.5 ng/mL) was added and the plate was incubated at 37° C. in a CO2 incubator for 24 hours. After the 24-hour incubation, 5 μL of the induced HEK-Blue hNOD2 cell supernatant was transferred to a new 384-well plate, centrifuged, and 45 μL of QUANTI-Blue solution was added per well and incubated for 3 hours at 37° C. SEAP levels were measured using an Ensight at 620 nm. Percent inhibition of NOD2 signaling was determined using the following equation: (high control−test compound signal)/(High control−low control)×100. The reaction high control was determined using wells with DMSO, cells, L18-MDP, and QUANTI-Blue solution. The reaction low control was determined using wells with DMSO, cells, and QUANTI-Blue solution. 4-parametric curve fit was used to determine the test compound concentration that results in 50% reduction of L18-MDP-driven human NOD2 signaling.
Using the assay described above, inhibition of hNOD2 signaling was also evaluated for GSK 2983559 (Haile at al., J. Med. Chem. 2019, 62, 14, 6482-6494), a known RIPK2 kinase inhibitor: […]

This note sets out measurements from patent US12624018B1, “Inhibitors of RIPK2 and medical uses thereof” (Odyssey Therapeutics, Inc., priority 2022, dated 2026).

Where a name gives a salt, the structure may show the parent alone. Bounds are passed on as bounds.

T1 sequence (O43353 1-299 limits assumed): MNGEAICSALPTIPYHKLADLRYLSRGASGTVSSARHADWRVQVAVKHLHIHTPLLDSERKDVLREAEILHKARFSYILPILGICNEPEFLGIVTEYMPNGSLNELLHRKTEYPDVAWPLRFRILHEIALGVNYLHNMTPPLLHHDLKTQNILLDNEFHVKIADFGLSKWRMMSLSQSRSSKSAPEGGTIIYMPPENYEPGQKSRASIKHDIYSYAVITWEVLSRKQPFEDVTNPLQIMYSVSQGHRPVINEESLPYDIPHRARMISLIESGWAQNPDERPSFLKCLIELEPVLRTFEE

On to `[2H]C([2H])([2H])NC(=O)c1cc2c(Oc3ccc(CC(=O)Nc4cnn(C(C)(C)C)c4)cc3C)ccnc2cc1F` [Compound 493, 4-(4-(2-((1-(tert-butyl)-1H-pyrazol-4-yl)amino)-2-oxoethyl)-2-methylphenoxy)-7-fluoro-N-(methyl-d3)quinoline-6-carboxamide], for which the IC50 was below 2.5 nM on RIPK2 enzyme and 0.2 nM in the test with human NOD2 signaling.

Turning to `Cc1cc(CC(=O)Nc2cnn(C(C)(C)C)c2)c(F)cc1Oc1ccnc2ccc(-c3cnccc3C)cc12` [Compound 507, N-(1-(tert-butyl)-1H-pyrazol-4-yl)-2-(2-fluoro-5-methyl-4-((6-(4-methylpyridin-3-yl)quinolin-4-yl)oxy)phenyl)acetamide], the half-maximal inhibitory concentration (IC50) on RIPK2 enzyme is below 2.5 nM; in the test with human NOD2 signaling it was 0.3 nM.

Regarding `Cc1cc(CC(=O)Nc2cnn(C(C)(C)C)c2)c(F)cc1Oc1ccnc2ccc(-c3cccnc3C)cc12` [Compound 508, N-(1-(tert-butyl)-1H-pyrazol-4-yl)-2-(2-fluoro-5-methyl-4-((6-(2-methylpyridin-3-yl)quinolin-4-yl)oxy)phenyl)acetamide], the figures for the IC50 at RIPK2 enzyme and with human NOD2 signaling were below 2.5 nM and 2.5 nM, respectively.

Consider `[2H]C([2H])([2H])NC(=O)c1ccc2nccc(Oc3cc(F)c(CC(=O)Nc4cnn(C56CC(C5)C6)c4)cc3Cl)c2c1` [Compound 511, 4-(4-(2-((1-(bicyclo[1.1.1]pentan-1-yl)-1H-pyrazol-4-yl)amino)-2-oxoethyl)-2-chloro-5-fluorophenoxy)-N-(methyl-d3)quinoline-6-carboxamide], for which the half-inhibitory concentration (IC50) on RIPK2 enzyme is below 2.5 nM; in the test with human NOD2 signaling, 8 nM.

Turning to `Cc1cc(CC(=O)Nc2cnn(C(C)(C)C)c2)c(F)cc1Oc1ccnc2ccc(C(=O)NC3(C)COC3)cc12` [Compound 514, 4-(4-(2-((1-(tert-butyl)-1H-pyrazol-4-yl)amino)-2-oxoethyl)-5-fluoro-2-methylphenoxy)-N-(3-methyloxetan-3-yl)quinoline-6-carboxamide], the IC50 at RIPK2 enzyme is below 2.5 nM; in the test on human NOD2 signaling, 1.5 nM.

For `Cc1cc(CC(=O)Nc2cnn(C(C)(C)C)c2)c(F)cc1Oc1ccnc2ccc(C(=O)N(C)C3(C)CC3)cc12` [Compound 519, 4-(4-(2-((1-(tert-butyl)-1H-pyrazol-4-yl)amino)-2-oxoethyl)-5-fluoro-2-methylphenoxy)-N-methyl-N-(1-methylcyclopropyl)quinoline-6-carboxamide], the IC50 is below 2.5 nM at RIPK2 enzyme and 0.6 nM with human NOD2 signaling.

On to `Cc1ccnnc1-c1ccc2nccc(Oc3cc(F)c(CC(=O)Nc4cnn(C(C)(C)C)c4)cc3Cl)c2c1` [Compound 520, N-(1-(tert-butyl)-1H-pyrazol-4-yl)-2-(5-chloro-2-fluoro-4-((6-(4-methylpyridazin-3-yl)quinolin-4-yl)oxy)phenyl)acetamide], for which the IC50 at RIPK2 enzyme is below 2.5 nM; in the test on human NOD2 signaling, 0.7 nM.

With `Cc1cc(CC(=O)Nc2cnn(C(C)(C)C)c2)c(F)cc1Oc1ccnc2ccc(-c3nnc(CO)cc3C)cc12` [Compound 521, N-(1-(tert-butyl)-1H-pyrazol-4-yl)-2-(2-fluoro-4-((6-(6-(hydroxymethyl)-4-methylpyridazin-3-yl)quinolin-4-yl)oxy)-5-methylphenyl)acetamide], the IC50 was below 2.5 nM on RIPK2 enzyme and 2.2 nM with human NOD2 signaling.

On to `Cc1cc(CC(=O)Nc2cnn(C(C)(C)C)c2)c(F)cc1Oc1ccnc2ccc(-c3ncccc3C(F)(F)F)cc12` [Compound 522, N-(1-(tert-butyl)-1H-pyrazol-4-yl)-2-(2-fluoro-5-methyl-4-((6-(3-(trifluoromethyl)pyridin-2-yl)quinolin-4-yl)oxy)phenyl)acetamide], for which the figures for the IC50 at RIPK2 enzyme and in the test with human NOD2 signaling were 8.6 nM and 25.8 nM, respectively.

Take `Cc1cc(CC(=O)Nc2cnn(C(C)(C)C)c2)c(F)cc1Oc1ccnc2ccc(-c3cncnc3C)cc12` [Compound 524, N-(1-(tert-butyl)-1H-pyrazol-4-yl)-2-(2-fluoro-5-methyl-4-((6-(4-methylpyrimidin-5-yl)quinolin-4-yl)oxy)phenyl)acetamide]: the half-maximal inhibitory concentration (IC50) on RIPK2 enzyme was below 2.5 nM; with human NOD2 signaling it was 0.7 nM.

As for `Cc1cc(CC(=O)Nc2cnn(C(C)(C)C)c2)c(F)cc1Oc1ccnc2ccc(-c3ccnnc3C)cc12` [Compound 525, N-(1-(tert-butyl)-1H-pyrazol-4-yl)-2-(2-fluoro-5-methyl-4-((6-(3-methylpyridazin-4-yl)quinolin-4-yl)oxy)phenyl)acetamide], the IC50 on RIPK2 enzyme was below 2.5 nM; with human NOD2 signaling, 5.5 nM.

`Cc1cc(CC(=O)Nc2cnn(C(C)(C)C)c2)c(F)cc1Oc1ccnc2ccc(-c3c(C)ncnc3C)cc12` [Compound 526, N-(1-(tert-butyl)-1H-pyrazol-4-yl)-2-(4-((6-(4,6-dimethylpyrimidin-5-yl)quinolin-4-yl)oxy)-2-fluoro-5-methylphenyl)acetamide]: the IC50 at RIPK2 enzyme was below 2.5 nM; in the test with human NOD2 signaling it was 16.1 nM.

Take `CC(C)(C)n1cc(NC(=O)Cc2cc(Cl)c(Oc3ccnc4ccc(CS(C)(=O)=O)cc34)cc2F)cn1` [Compound 561, N-(1-(tert-butyl)-1H-pyrazol-4-yl)-2-(5-chloro-2-fluoro-4-((6-((methylsulfonyl)methyl)quinolin-4-yl)oxy)phenyl)acetamide]: the half-maximal inhibitory concentration (IC50) on RIPK2 enzyme was below 2.5 nM; in the test with human NOD2 signaling it was 15.4 nM.

Consider `CNC(=O)c1cc2c(Oc3cc(F)c(CC(=O)Nc4cnn(C(C)(C)C)c4)cc3C)ccnc2cc1C` [Compound 564, 4-(4-(2-((1-(tert-butyl)-1H-pyrazol-4-yl)amino)-2-oxoethyl)-5-fluoro-2-methylphenoxy)-N,7-dimethylquinoline-6-carboxamide], for which the values for the IC50 at RIPK2 enzyme and in the test on human NOD2 signaling were below 2.5 nM and 10.8 nM, respectively.

With `CNC(=O)c1cc2c(Oc3cc(F)c(CC(=O)Nc4cnn(C(C)(C)C)c4)cc3C)ccnc2cc1Cl` [Compound 565, 4-(4-(2-((1-(tert-butyl)-1H-pyrazol-4-yl)amino)-2-oxoethyl)-5-fluoro-2-methylphenoxy)-7-chloro-N-methylquinoline-6-carboxamide], the values for the IC50 at RIPK2 enzyme and in the test with human NOD2 signaling were below 2.5 nM and 6.9 nM, respectively.

Regarding `CNC(=O)Cc1ccc2nccc(Oc3cc(F)c(CC(=O)Nc4cnn(C(C)(C)C)c4)cc3C)c2c1` [Compound 567, N-(1-(tert-butyl)-1H-pyrazol-4-yl)-2-(2-fluoro-5-methyl-4-((6-(2-(methylamino)-2-oxoethyl)quinolin-4-yl)oxy)phenyl)acetamide formic acid salt], the figures for the IC50 on RIPK2 enzyme and in the test on human NOD2 signaling were below 2.5 nM and 9.8 nM, respectively.

For `CNC(=O)C(C)(C)c1ccc2nccc(Oc3cc(F)c(CC(=O)Nc4cnn(C(C)(C)C)c4)cc3C)c2c1` [Compound 569, 2-(4-(4-(2-((1-(tert-butyl)-1H-pyrazol-4-yl)amino)-2-oxoethyl)-5-fluoro-2-methylphenoxy)quinolin-6-yl)-N,2-dimethylpropanamide], the IC50 on RIPK2 enzyme is below 2.5 nM; with human NOD2 signaling it was 10.4 nM.

For the compound `Cc1cc(CC(=O)Nc2cnn(C(C)(C)C)c2)c(F)cc1Oc1ccnc2ccc(C3(C(N)=O)CC3)cc12` [Compound 570, 1-(4-(4-(2-((1-(tert-butyl)-1H-pyrazol-4-yl)amino)-2-oxoethyl)-5-fluoro-2-methylphenoxy)quinolin-6-yl)cyclopropane-1-carboxamide], the IC50 at RIPK2 enzyme was found to be 2.7 nM; in the test on human NOD2 signaling, 10.5 nM.

As for `CNC(=O)C1(c2ccc3nccc(Oc4cc(F)c(CC(=O)Nc5cnn(C(C)(C)C)c5)cc4C)c3c2)CC1` [Compound 571, 1-(4-(4-(2-((1-(tert-butyl)-1H-pyrazol-4-yl)amino)-2-oxoethyl)-5-fluoro-2-methylphenoxy)quinolin-6-yl)-N-methylcyclopropane-1-carboxamide formic acid salt], the values for the IC50 on RIPK2 enzyme and in the test on human NOD2 signaling were 2.9 nM and 4.5 nM, respectively.

In general, IC50 refers to the midpoint of a concentration-inhibition curve.
